# Assay results from article PMC6934184, “Selective DNA-PKcs inhibition extends the therapeutic index of localized radiotherapy and chemotherapy” (The Journal of Clinical Investigation, 2019).
# Target: T1, STK33 (Homo sapiens, UniProt Q9BYT3)
# T1 construct: purchased Thermo Fisher Scientific (Life Technologies) SelectScreen
# Assay: SelectScreen LanthaScreen
# Format: binding
# Settings: read-out: % displacement
# How it was run: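 Percent values come from Thermo SelectScreen profiling of NU5455, combining activity and binding assays. CSF1R was run in Z'LYTE format at Km app ATP, and CAMK1 in Adapta format with ATP listed at 10.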
# T1 sequence (Q9BYT3 whole entry): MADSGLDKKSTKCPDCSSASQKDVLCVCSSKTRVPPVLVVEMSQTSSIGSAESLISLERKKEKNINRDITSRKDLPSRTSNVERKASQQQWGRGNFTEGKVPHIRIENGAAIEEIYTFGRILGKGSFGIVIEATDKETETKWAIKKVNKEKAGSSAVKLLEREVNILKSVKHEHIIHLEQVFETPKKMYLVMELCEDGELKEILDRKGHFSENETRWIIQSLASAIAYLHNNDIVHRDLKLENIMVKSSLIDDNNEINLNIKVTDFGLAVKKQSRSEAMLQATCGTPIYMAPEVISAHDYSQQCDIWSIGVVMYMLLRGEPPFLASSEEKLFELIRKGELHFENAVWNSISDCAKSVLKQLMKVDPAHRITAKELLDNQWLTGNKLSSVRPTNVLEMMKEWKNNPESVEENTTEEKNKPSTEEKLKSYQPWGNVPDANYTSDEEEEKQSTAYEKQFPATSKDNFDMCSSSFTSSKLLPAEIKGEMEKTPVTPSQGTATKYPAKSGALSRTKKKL
smiles,measurement,value
CN(C(=O)CN1CCOCC1)c1ccc2sc3c(-c4cccc5c(=O)cc(N6CC7CCC(C6)O7)oc45)cccc3c2c1 [NU5455],inhibition at 1 µM,4.7%
